# Data taken from PubChem BioAssay (NCI).
#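 How tested: cells in 96-well plates exposed to compound for 48 hours at five concentrations. Here, GI50 denotes the concentration required for 50% inhibition of growth. TGI: total growth inhibition.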
# What was measured:
# Test in all cases: NCI-60 cell line screen, 48 h
# [1] = tested on: MCF7 breast
# [2] = tested on: M14 melanoma
# [3] = tested on: HCT-116 colon
# [4] = tested on: ACHN renal
# [5] = tested on: NCI-H522 lung
# [6] = tested on: KM12 colon
# [7] = tested on: EKVX NSCLC
# [8] = tested on: T-47D breast
# [9] = tested on: SK-OV-3 ovarian
# [10] = tested on: SF-268 CNS
# [11] = tested on: SNB-75 CNS
# [12] = tested on: U251 CNS
# [13] = tested on: LOX IMVI melanoma
# [14] = tested on: MALME-3M melanoma
# [15] = tested on: 786-0 renal
# [16] = tested on: HCT-15 colon
# [17] = tested on: SF-539 CNS
# [18] = tested on: OVCAR-4 ovarian
# [19] = tested on: IGROV1 ovarian
# [20] = tested on: SK-MEL-28 melanoma
# [21] = tested on: COLO 205 colon
# [22] = tested on: CCRF-CEM leukemia
# [23] = tested on: NCI-H460 lung
# [24] = tested on: PC-3 prostate
# [25] = tested on: OVCAR-8 ovarian
# [26] = tested on: HOP-92 NSCLC
# [27] = tested on: OVCAR-3 ovarian
# [28] = tested on: NCI-H23 lung
# [29] = tested on: MDA-MB-435
# [30] = tested on: SW-620 colon
# [31] = tested on: DU-145 prostate
# [32] = tested on: SK-MEL-5 melanoma
# [33] = tested on: HCC-2998 colon
# [34] = tested on: UACC-257 melanoma
# [35] = tested on: NCI/ADR-RES ovarian
# [36] = tested on: HT29 colon
# [37] = tested on: CAKI-1 renal
# [38] = tested on: A549 NSCLC
# [39] = tested on: NCI-H226 lung
# [40] = tested on: SR leukemia
# [41] = tested on: RXF 393 renal
# [42] = tested on: MDA-MB-231 breast
# [43] = tested on: SK-MEL-2 melanoma
# [44] = tested on: HL-60(TB) leukemia
# [45] = tested on: MOLT-4 leukemia
# [46] = tested on: BT-549 breast
# [47] = tested on: OVCAR-5 ovarian
# [48] = tested on: SNB-19 CNS
# [49] = tested on: UO-31 renal
# [50] = tested on: TK-10 renal
# [51] = tested on: SN12C renal
# [52] = tested on: UACC-62 melanoma
# [53] = tested on: SF-295 CNS
# [54] = tested on: HOP-62 NSCLC
# [55] = tested on: HS 578T breast
# [56] = tested on: K-562 leukemia
compound,measurement,setting,value
COc1cc2c(cc1OCCCCCn1c(-c3ccc(OCc4ccccc4)cc3)nc3cc(N4CCOCC4)ccc31)N=C[C@@H]1CCCN1C2=O,GI50,[1],1.18 µM
same,TGI,[1],8.77 µM
same,GI50,[2],2 µM
same,TGI,[2],4.56 µM
same,GI50,[3],2.39 µM
same,TGI,[3],> 100 µM
same,GI50,[4],2.63 µM
same,TGI,[4],8.31 µM
same,GI50,[5],2.15 µM
same,TGI,[5],8.35 µM
same,GI50,[6],1.93 µM
same,TGI,[6],4.73 µM
same,GI50,[7],4.74 µM
same,TGI,[7],20.7 µM
same,GI50,[8],2.17 µM
same,TGI,[8],7.73 µM
same,GI50,[9],4.16 µM
same,TGI,[9],> 100 µM
same,GI50,[10],2.91 µM
same,TGI,[10],10.4 µM
same,GI50,[11],1.99 µM
same,TGI,[11],6.63 µM
same,GI50,[12],2.23 µM
same,TGI,[12],> 100 µM
same,GI50,[13],2.02 µM
same,TGI,[13],7.85 µM
same,GI50,[14],2.08 µM
same,TGI,[14],4.49 µM
same,GI50,[15],3.24 µM
same,TGI,[15],> 69.3 µM
same,GI50,[16],2.81 µM
same,TGI,[16],> 31.3 µM
same,GI50,[17],2.42 µM
same,TGI,[17],5.41 µM
same,GI50,[18],3.4 µM
same,TGI,[18],59.4 µM
same,GI50,[19],1.17 µM
same,TGI,[19],5.88 µM
same,GI50,[20],2.18 µM
same,TGI,[20],4.61 µM
same,GI50,[21],2.15 µM
same,TGI,[21],5.13 µM
same,GI50,[22],1.4 µM
same,GI50,[23],2.17 µM
same,TGI,[23],5.93 µM
same,GI50,[24],3.88 µM
same,TGI,[24],> 100 µM
same,GI50,[25],2.78 µM
same,TGI,[25],> 50.9 µM
same,GI50,[26],2.11 µM
same,TGI,[26],26.2 µM
same,GI50,[27],2.06 µM
same,TGI,[27],5.36 µM
same,GI50,[28],2.62 µM
same,TGI,[28],6.53 µM
same,GI50,[29],1.87 µM
same,TGI,[29],4.38 µM
same,GI50,[30],2.12 µM
same,TGI,[30],8.29 µM
same,GI50,[31],2.57 µM
same,TGI,[31],11.3 µM
same,GI50,[32],1.66 µM
same,TGI,[32],3.13 µM
same,GI50,[33],2.09 µM
same,TGI,[33],4.14 µM
same,GI50,[34],3.04 µM
same,TGI,[34],7.78 µM
same,GI50,[35],3.3 µM
same,TGI,[35],26.1 µM
same,GI50,[36],3.26 µM
same,TGI,[36],> 100 µM
same,GI50,[37],1.43 µM
same,TGI,[37],9 µM
same,GI50,[38],2.43 µM
same,TGI,[38],7.95 µM
same,GI50,[39],1.88 µM
same,TGI,[39],4.56 µM
same,GI50,[40],1.05 µM
same,TGI,[41],2.38 µM
same,GI50,[42],2.8 µM
same,TGI,[42],> 47.2 µM
same,GI50,[43],0.729 µM
same,TGI,[43],3.02 µM
same,GI50,[44],2.31 µM
same,TGI,[44],> 19.9 µM
same,GI50,[45],2.93 µM
same,TGI,[45],> 26.6 µM
same,GI50,[46],1.52 µM
same,TGI,[46],5.68 µM
same,GI50,[47],3.49 µM
same,TGI,[47],> 28.9 µM
same,GI50,[48],3.71 µM
same,TGI,[48],> 49.8 µM
same,GI50,[49],0.377 µM
same,GI50,[50],3.45 µM
same,TGI,[50],> 36.2 µM
same,GI50,[51],3.11 µM
same,TGI,[51],47 µM
same,GI50,[52],1.72 µM
same,TGI,[52],3.67 µM
same,GI50,[53],4.84 µM
same,TGI,[53],> 100 µM
same,GI50,[54],3.58 µM
same,TGI,[54],40 µM
same,GI50,[55],2.84 µM
same,TGI,[55],12.8 µM
same,TGI,[56],> 100 µM
